Reference: patent US6962909B2, “Treatment of neovascularization disorders with squalimine” (Genaera Corporation, priority 1995, dated 2005)

How the values were obtained:
[1] = tested on: vitelline capillaries of 3- to 5-day chick embryo; test: Chick embryo vitelline capillary regression assay; assay type: in vivo; design: key to Vascular reactivity (capillary regression): + = Vascular reactivity; 0 = No vascular reactivity; +/− = Equivocal reactivity; settings: for Vascular reactivity (capillary regression): 60 minutes
In short: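 Compounds were applied onto the 3- to 5-day embryo in 0.1 ml 15% Ficol 400 in PBS. Vascular regression was assessed visually after 60 min, scoring capillary constriction and pinching-off into enclosed blood-island-like sacs.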

[2] = tested on: Stage 59-60 Xenopus tadpoles; test: Xenopus tadpole assay; assay type: in vivo, Xenopus laevis; settings: 10 μg/ml in water; for Pharmacological response observed in tadpole: about 1 hour
In short: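 Stage 59-60 Xenopus laevis tadpoles placed in compound dissolved in distilled water at 10 μg/ml, allowing oral uptake and systemic exposure. After 1 hour, capillary blood-flow occlusion in the tail was scored by inverted microscopy (~100×) plus gross observation.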

B16 melanoma = test: Growth of B16 melanoma in C57B mice; assay type: in vivo
Experimental: The growth of B16 melanoma in C57B mice is dependent upon neovascularization.
Using the growth of B16 melanoma cells in C57B mice, a recognized model for the evaluation of inhibitors of angiogenesis on the growth of cancers, the effects of subcutaneous, intraperitoneal and oral administration of squalamine were evaluated.
Animals were implanted with B16 melanoma followed by treatment with compound 1436 or 1256 administered in a combined schedule or separately. […] Thus, a combination of these two compounds achieves a therapeutic benefit in tumors dependent on neovascularization that may prevent metastatic spread.

[3] = tested on: PHA-stimulated human lymphocytes; test: Inhibition of mitogen-stimulated growth of human T-cells; assay type: cell-based; settings: 72 hours
Experimental: Human heparinized blood, freshly collected, was introduced into tissue culture flasks containing 10 μg/ml phytohaemagglutinin (PHA) in RPMI medium with 10% FCS. Various purified steroids were introduced subsequently at concentrations of 1, 5, and 10 μg/ml. Cultures were incubated for 72 hours, after which time colcemid was added to 1 μg/ml. Cultures were maintained for an additional 2 hours, and cells collected. Mitotic figures were estimated using standard cytochemical techniques, following Giemsa staining.

[4] = Fasting blood glucose in mice; assay type: in vivo; settings: for Fasting Blood Glucose Mean + SEM: male CD-1 mice, 2 × 10 mg/kg i.v. (total 20 mg/kg), overnight fast, blood 30 min. after 2d dose, 1437 and 1256 in H2O, 1436 in D5W
Experimental: To study the effect of steroid administrator or the NHE responsible for secretion of insulin, several of the aminosterols from shark liver were administered to fasting mice. Male CD-1 mice were assigned to one of four treatment groups. Whole blood glucose was tested using glucometer (Lifescan Glucometer II and One Touch test strips). Statistical analysis was via one-way analysis of variance (ANOVA) followed by subsequent Bonferonni's t-test.

[5] = tested on: human umbilical venous endothelial cells; test: LPS/TNF-α-induced neutrophil adherence to endothelial cells; assay type: cell-based; settings: squalamine 10 μg, 1.0 μg or 0.1 μg; three subjects
Experimental: To determine if squalamine inhibited this particular endothelial cell function, standard adhesion assays were performed as outlined in Gamble et al., J. Imm. Methods 109, 1988, 175-184. […] In these experiments, approximately 2×10^5 human umbilical venous cells (passage 2-6) were plated per well. The cells were grown in serum-free media overnight. For induction, either TNF-α (40 ng/ml) was added to endothelial cells for 6 hours prior to adding neutrophils or LPS (100 ng/ml) was added for 4-6 hours. […] After activation of the endothelial cells, approximately 50×10^6 neutrophils were added per well. The plates were gently rocked for 30 minutes at room temperature, followed by removal of the media and washing in serum-free media three times and then photographing of each well. Experiments to test the effects of squalamine were performed by adding squalamine at 10 μg, 1.0 μg, or 0.1 μg at the time of adding LPS or TNF-α. A second repeat dose of squalamine was added at the time of adding neutrophils. A monoclonal Ab to ICAM-1 was a positive control.

| SMILES | Vascular reactivity (capillary regression) ([1]; 0.001 μg applied) | Vascular reactivity (capillary regression) ([1]; 0.01 μg applied) | Vascular reactivity (capillary regression) ([1]; 0.1 μg applied) | Vascular reactivity (capillary regression) ([1]; 1 μg applied) | Vascular reactivity (capillary regression) ([1]; 10 μg applied) | Pharmacological category in tadpole assay (similarity to a reference steroid) [2] | Time to death of tadpole [2] | Pharmacological response observed in tadpole [2] | Inhibition of PHA-stimulated human lymphocytes ([3]; 1 μg/ml) [% control] | Inhibition of PHA-stimulated human lymphocytes ([3]; 5 μg/ml) [% control] | Inhibition of PHA-stimulated human lymphocytes ([3]; 10 μg/ml) [% control] | Fasting Blood Glucose Mean + SEM [4] [mg/dL] | further results |
| --- | --- | --- | --- | --- | --- | --- | --- | --- | --- | --- | --- | --- | --- |
| CC(CC[C@@H](OS(=O)(=O)O)C(C)C)[C@H]1CCC2C3C(CC[C@@]21C)[C@@]1(C)CC[C@H](NCCCNCCCCNCCCN)C[C@@H]1C[C@H]3O (some centres unmarked) [Compound 1436] | +/− | + | + | + | + | common vascular occlusive effect | about 2 hours | Gradual reduction in overall activity. Heart beat remained strong, suggesting nervous system depression. Melanocytes over head and tail began to swell, first exhibiting visibly distinct nuclei, followed by rupture into fragments | 20 | 50 | 80 | 105 ± 8.0 | Effect on chick embryo capillary bed ([1]; in vivo): causes vitelline capillary regression with about the same potency as squalamine; Pharmacological response observed in tadpole ([2]; listed as compound 1436): dramatic disruption of melanocytes over its head, trunk, and tail, along with depression of its nervous system; Impact on tumor volume (B16 melanoma; compound 1436 10 mg/kg/every 3 days alone): no significant impact on tumor volume; Effect on blood glucose ([4]; intravenous, 1436 in D5W (5% glucose), 1437 in water): caused hyperglycemia in mice |
| CC(CC[C@@H](OS(=O)(=O)O)C(C)C)[C@H]1CCC2C3C(CC[C@@]21C)[C@@]1(C)CC[C@H](NCCCNCCCCN)C[C@@H]1C[C@H]3O (some centres unmarked) [squalamine] | 0 | + | + | + | + | common vascular occlusive effect | ≤ 2 h | blood flow through the capillaries of the tail shut down | 3 | 8 | 10 | 65 ± 7.3 | Inhibition of neutrophil adherence [5]: no inhibition; Pharmacological response observed in tadpole ([2]; listed as Compound 1256): Vascular occlusion in fine capillaries of tail; Body weight and hematologic parameters (B16 melanoma; during squalamine treatment): no significant depression; Impact on tumor volume (B16 melanoma; squalamine 5 mg/kg/day alone): no significant impact on tumor volume; Suppression of tumor volume (B16 melanoma; squalamine intraperitoneally): dose-dependent suppression of tumor volume; Suppression of tumor volume (B16 melanoma; squalamine orally): dose-dependent suppression of tumor volume; Suppression of tumor volume (B16 melanoma; squalamine subcutaneously): dose-dependent suppression of tumor volume |
